Results published in patent US12364709B2, “Bioavailable poly amines” (AMINEX THERAPEUTICS, INC., priority 2016, dated 2025).

Columns and labels:
[1] = Pharmacokinetic analysis of AMXT 1501 salt forms, single oral tablet dose; format: in vivo, beagle dogs
Excerpt: Following dose administration all the animals had serial blood collections. Table 18 provides pharmacokinetic data obtained using the various salt forms of AMXT 1501 following single PO dosing to dogs. In Table 18, Group 1 received the free base form of AMXT 1501, Group 2 received the dicholate salt of AMXT 1501, Group 3 received the phosphate salt form of AMXT 1501, and Group 4 received the dicaprate salt form of AMXT 1501. […] In Table 18, SD refers to standard deviation and CV % refers to coefficient of variability.

[2] = cited from earlier work
[3] = cited from earlier work; remark: listed apart in the source
[4] = 3 h intravenous infusions; cited from earlier work
[5] = single PO dose 16.0 mg/kg (2 x 80 mg tablets), plasma AMXT 1501
[6] = single PO dose 16.0 mg/kg (2 x 80 mg tablets), plasma AMXT 1501, 16 mg/kg
[7] = single PO dose 16.0 mg/kg, plasma AMXT 1501, 16 mg/kg
[8] = single PO dose 16.0 mg/kg, t=24 hours, plasma AMXT 1501, 16 mg/kg

## CCCCCCCCCCCCCCCC(=O)NCCCC[C@@H](N)C(=O)NCCCNCCCCNCCCN [AMXT 1501 free base]
[1]; [5]
  Tmax Median: 6.00 h
  Tmax Min.: 6.00 h
[1]; [6]
  Cmax Max.: 468 ng/mL
  Cmax Mean: 250 ng/mL
  Cmax Median: 250 ng/mL
  Cmax Min.: 31.3 ng/mL
  Tmax Max.: 12.0 h
  Tmax Mean: 8.00 h
[1]; [7]
  t1/2 Max.: 9.76 h
  t1/2 Mean: 9.76 h
  t1/2 Median: 9.76 h
  t1/2 Min.: 9.76 h
[1]; [8]
  AUC0-t Max.: 8450 ng·h/mL
  AUC0-t Mean: 4710 ng·h/mL
  AUC0-t Median: 5330 ng·h/mL
  AUC0-t Min.: 363 ng·h/mL
[1]; single oral delivery, FIGS. 5A-5D
  inter-animal consistency of plasma AMXT 1501 levels: variable drug levels

## CCNCCCCNCCCCNCCCCNCC [DEHSpm, N1,N14-diethylhomospermine]
[2]; 2-4 hrs. post-injection
  drug in plasma: not observed
[2]; solid tumor patients
  objective response: None of the 15 patients

## c1cc(CN2CCCNCCNCCCNCC2)ccc1CN1CCCNCCNCCCNCC1 [Mozobil]
[3]; subcutaneous 40-360 μg/kg, healthy volunteers
  clearance by: ≤ 10 h
[3]; subcutaneous
  Plasma half-life: 3 h

## N=C(N)NCCCCCCC(=O)NC(O)C(=O)NCCCCNCCCN (stereo not shown) [deoxyspergualin]
[4]
  half-life: 1.8 h
